Source: a melting point compilation (Tetko et al.)

| SMILES | melting point [°C] |
| --- | --- |
| CN(C)c1ccc(/C=C(/C#N)c2nc3ccccc3c(=O)[nH]2)cc1 | 308 to 309 |
| COc1cc(N=C=O)cc(OC)c1 | 34 to 35.5 |
| CC(C)[Si](C(C)C)(C(C)C)C1SCCCS1 | 48 |
| O=[N+]([O-])C1CCCCC1 | -34 |
| CC(=O)CS(=O)(=O)c1ccc(C)cc1 | 52 to 54 |
| OCc1cccc(-c2cccs2)c1 | 46 to 49 |
| Nc1cc(Br)cc2cc[nH]c12 | 105 |
| O=C(O)c1ccc(N/N=C(\C(=O)c2cccs2)C(=O)C(F)(F)F)cc1 | 219 |
| O=C(O)c1ccc(=O)[nH]c1 | 314 to 316 |
| COc1cc(/C=C/C(=O)c2ccc3ccccc3c2)cc(OC)c1OC | 119 |
| N#CC1(c2ccc(F)cc2)CCC(=O)CC1 | 93 |
| CC(C)(C)OC(=O)ON=C(C#N)c1ccccc1 | 86 to 89 |
| c1ccc(OCCOCCOc2ccccc2)cc1 | 66 |
| Cc1c(Cl)c(=O)oc2cc(OP(=O)(OCCCl)OCCCl)ccc12 | 91 |
| O=C(O)CN(CC(=O)O)c1ccccc1 | 156 to 160 |
| COc1cc(C=C2C(=O)NC(=N)N2C)ccc1O | 270 to 273 |
| CC(=O)CCc1ccc(CCC(C)=O)cc1 | 55 to 56 |
| COc1ccc2cc(Nc3ccc4c(c3)OCCO4)ccc2c1 | 102 |
| Brc1ccc(-c2ccc(Br)cc2)cc1 | 167 |
| CN(N)c1ccc(C(F)(F)F)cn1 | 52 to 55 |
| Nc1ccc2ccccc2c1N | 98.5 |
| NC(=O)/C(=N\Nc1cc(Cl)ccc1Cl)c1nc2ccccc2s1 | 270 |

| SMILES | melting point [°C] |
| --- | --- |
| COc1ccc2[nH]cc(CCN(C)C)c2c1 | 69.5 |
| COc1ccc(N(C)C(=S)Cl)cc1 | 70 to 72 |
| OCC1OC(OCC2OC(O)(CO)C(O)C2O)C(O)C(O)C1O (stereo unspecified) | 125 to 128 |
| CC(=O)N1C(=O)c2ccccc2C1=O | 137 |
| CC1CCCC(C)C1C (stereo unspecified) | -66.9 |
| CC(C)c1nsc(N)n1 | 119 to 120 |
| COc1ccc2c3c1OC1C(O)C=CC4C(C2)[N+](C)([O-])CCC341 (stereo unspecified) | 232 |
| CN1CCN(Cc2cccc(I)c2)CC1 | 81 to 83 |
| ClC=CBr | -86.7 |
| Cc1ccc(S(=O)(=O)NC(=O)NN2CCCCCC2)cc1 | 170 |
| O=C(c1ccccc1)c1ccc(-c2ccc(Br)cc2)cc1 | 157 |
| Nc1ccc(SSc2ccc(N)cc2)cc1 | 77 |
| O=[N+]([O-])c1ccc(Cl)c(N=C=S)c1 | 67 to 70 |
| O=C1C(=O)c2ccccc2CCc2ccccc21 | 132 |
| O=C(O)c1cc2ccccc2[nH]1 | 206 |
| O=CC(C=O)c1cnc2ccccc2n1 | 197 to 199 |
| N#Cc1ccc(F)cn1 | 43 |
| COC(=O)C1=C(C)NC(=S)NC1c1ccc([N+](=O)[O-])cc1 (stereo unspecified) | 175 |
| Cc1nn(-c2ccccc2)c(C)c1CO | 106 to 110 |
| CC12CCC(=O)C=C1CCC1C2C(=O)CC2(C)C(C(=O)CO)CCC12 (stereo unspecified) | 184 |
| CC1C(c2ccccc2)=Cc2ccccc21 (stereo unspecified) | 58 |
| COc1ccc(CC(=O)O)cc1 | 87 |

| SMILES | melting point [°C] |
| --- | --- |
| OC1(c2ccc(Cl)c(C(F)(F)F)c2)CCNCC1 | 135 to 140 |
| CCOC(=O)c1sc(Cl)nc1C | 46 to 47 |
| CCOC(=O)CSc1nc(C(C)(C)C)nn1C(=O)N(C)C | 53 |
| O=S(=O)(c1ccccc1)C1CC1(Cl)Cl (stereo unspecified) | 83 to 88 |
| COc1ccc(C(O)C(=O)O)cc1 (stereo unspecified) | 108 to 111 |
| Cn1c(=O)c(C2=NNC(=O)C2=NNc2nccs2)c(O)c2ccccc21 | 301 |
| O=C(N[C@@H](Cc1cccc(F)c1)C(=O)O)OCC1c2ccccc2-c2ccccc21 | 156 |
| O=C(O)CN1CSC(=S)N(Cc2ccccc2)C1 | 152 |
| C[Si](C)(C)[Si]([Si](C)(C)C)([Si](C)(C)C)[Si](C)(C)C | 267 |
| Cc1ccccc1-n1ncc(C(=O)O)c1C | 142 to 147 |
| Cc1nn(C)c(NC(=O)CCl)c1Br | 151 to 153 |
| O=C(O)c1cccc(-c2ccsc2)c1 | 177 to 179 |
| O=C(O)c1cc(F)c(F)c(Br)c1F | 123 |
| NCc1ccc(C(=O)O)cc1 | 300 |
| COC(=O)Nc1nc2ccc(C(=O)c3ccccc3)cc2[nH]1 | 288 |
| O=[N+]([O-])c1ccc(Oc2ccccc2)c([N+](=O)[O-])c1 | 71 |
| ClC=CCCl (mixture of isomers) | -50 |
| CCOC(=O)N1COCc2c1ccc1cc3ccc(NC)c(CO)c3nc21 | 146 |
| O=C(OC1OC(=O)c2ccccc21)c1ccccc1 (stereo unspecified) | 133 to 135 |
| Cc1ccccc1NC(=S)C(=O)c1ccccc1 | 124 |
| C=COCCCC | -92 |
| Cc1nn2c(C)nnc2s1 | 93 |

| SMILES | melting point [°C] |
| --- | --- |
| NCCCNc1ncc(C(F)(F)F)cc1Cl | 60 to 65 |
| Fc1cccc(-c2cccc(F)c2)c1 | 8 |
| COc1ccc([N+](=O)[O-])cc1NN=C1C(=O)C(C(=O)Nc2cccc([N+](=O)[O-])c2)=Cc2ccccc21 | 335 |
| CC(C)C[C@H](NC(=O)CN)C(=O)O | 233 to 235 |
| CCOc1cccc(F)c1 | -27.5 |
| O=C(O)C(O)c1ccc(F)cc1F (stereo unspecified) | 123 |
| COc1cccc2cc(C(=O)Cc3c(C)cc(C)cc3C)oc12 | 121 to 122 |
| Cc1ccc(C)c2c1C(=O)OC2=O | 195 |
| COC(=O)C(C#N)=C(SCc1ccccc1)SCc1ccccc1 | 104 |
| O=[N+]([O-])c1ccc2ccc3cccc4ccc1c2c34 | 155 |
| O=C(O)c1c(Cl)cccc1[N+](=O)[O-] | 164 |
| CCC(=O)c1ccc(O)cc1 | 150 |
| CC1=C(C(=O)O)CCC1(C)C | 135 |
| Cc1nc2cc([N+](=O)[O-])ccc2[nH]1 | 224 |
| N#C/C(=N\Nc1c(Br)cc(Br)cc1Br)c1nc2ccccc2s1 | 179 |
| CCOC(=O)c1nnsc1N | 124 |
| CN(C)c1ccc(CCC2CCc3ccccc3N2N=O)cc1 (stereo unspecified) | 91 |
| CC(C)CCCC(C)C1CCC2C3CC=C4C=CCCC4(C)C3CCC12C (stereo unspecified) | 80 |
| Cc1cc(Oc2ccc(N)cn2)cc(C)c1Cl | 96 to 98 |
| O=C1OC(c2ccccc2)=NC1=Cc1ccccc1F | 148 to 149 |
| CCC(=N\NC(N)=O)/C(C)=N\NC(N)=O | 244 to 245 |
| Cc1cc(Br)cc([N+](=O)[O-])c1 | 83 |

| SMILES | melting point [°C] |
| --- | --- |
| FC(F)(F)c1cccc(C(c2ccccc2)(c2ccccc2)n2cncn2)c1 | 132 |
| O=S(=O)(Cl)c1ccc2ncsc2c1 | 118 to 119 |
| COc1ccc2c(-c3ccccc3)c(-c3ccccc3)[nH]c2c1 | 210 to 214 |
| CC1CC(C)CC(C)C1 (stereo unspecified) | -49.7 |
| ON=C(c1ccccc1)c1ccccc1 | 140 to 144 |
| Cc1cc2c(ccc3nonc32)nn1 | 167 to 169 |
| O=C(NCc1ccc(Cl)cc1)c1cc([N+](=O)[O-])cc([N+](=O)[O-])c1 | 200 to 202 |
| CC12CC3(C)CC(C)(C1)CC(Br)(C2)C3 | 101 to 102 |
| Ic1ccccc1CN1CCOCC1 | 46 to 48 |
| Cn1cc(S(=O)(=O)Cl)c(C(F)(F)F)n1 | 34 to 36 |
| NNC(=S)Nc1cccc(F)c1 | 164 to 166 |
| O=C(NCCCBr)c1cc([N+](=O)[O-])cc([N+](=O)[O-])c1 | 195 |
| CCOC(=O)C1=NC2Sc3sc(C(=O)OCC)cc3C(c3ccccc3)C2=C1N (stereo unspecified) | 133 |
| C=CCOc1cccc(O)c1C(C)=O | 45.5 to 46.5 |
| CN1C(=O)Cc2cc(N)ccc21 | 109 to 112 |
| Cc1cc(C(=O)O)n(C)n1 | 209 to 211 |
| NC(=O)C(Br)CBr (stereo unspecified) | 133 |
| COC(=O)c1c(OC)ccc(OC)c1C(=O)OC | 101 |
| CC(=O)Oc1ccc2ccc(OC(C)=O)cc2c1 | 131 |
| CCCC(C)C(=O)Nc1ccc(C)c(Cl)c1 (stereo unspecified) | 85.5 |
| O=C(OC(C(=O)O)C(OC(=O)c1ccccc1)C(=O)O)c1ccccc1 (stereo unspecified) | 155 |
| N#CC1=C(N)n2nc(C(F)(F)F)nc2NC1c1ccco1 (stereo unspecified) | 260 |

| SMILES | melting point [°C] |
| --- | --- |
| COc1cc(C(=O)NN)cc(OC)c1O | 156 |
| CN(C(=O)C(Cl)Cl)c1ccc(O)cc1 | 175 |
| O=C(Cl)c1ccccc1Oc1ccccc1 | 37 to 39 |
| COc1ccc2cnc(C)cc2c1 | 115 |
| COc1cc(C)c(Cl)cc1S(=O)(=O)Cl | 127 |
| Oc1cc(C(F)(F)F)nc2ccc(OC(F)(F)F)cc12 | 229 to 232 |
| Cc1cc(=O)oc2cc(OC3OC(CO)C(O)C(O)C3O)ccc12 (stereo unspecified) | 248 |
| CC(=CNNc1nc(C)cc(C)n1)c1ccccn1 | 142 to 145 |
| COc1ccc2[nH]cc(CCNC(C)=O)c2c1 | 117 |
| O=C(Br)C(=O)Br | -19 |
| O=c1ccc([N+](=O)[O-])cn1Cc1ccccc1 | 96 |
| Nc1ccc(-c2cccs2)nc1 | 144 to 145 |
| CC1=NCCNc2c1c(=O)n(-c1ccccc1)c1ccccc21 | 221 |
| CC(C)(C)[N+]([O-])=Cc1ccccc1 | 71 to 75 |
| O=C1Nc2c(Br)cccc2C1=O | 199 to 200 |
| CC(=O)Nc1sc2c(c1C#N)CCCC2 | 215 to 217 |
| O=C1CC[C@H]2CCc3ccccc3[C@@H]2O1 | 138 to 141 |
| c1ncncn1 | 86 |
| FC(F)(F)c1ccc(N=C=S)cc1 | 41 to 43 |
| O=C(O)/C(=C/c1ccc([N+](=O)[O-])cc1)c1ccccc1C(=O)O | 223 |
| CC(Oc1c(Cl)cccc1Cl)C1=NCCN1 (stereo unspecified) | 126 |
